# Measured values from patent US10532081B2, “Method of ameliorating or preventing the worsening or the progression of symptoms of BPH” (Nymox Corporation, priority 2016, dated 2020).
# Marks after values point to notes of the source that are not given here.
# System: Patients with BPH
# Experiment: Double-blind clinical study: intraprostatic injection in patients with BPH, symptoms evaluated by International Prostate Symptom Score (IPSS)
# Assay type: in vivo, human
# Excerpt: The International Prostate Symptom Score (I-PSS) is based on the answers to seven questions concerning urinary symptoms and one question concerning quality of life. Each question concerning urinary symptoms allows the patient to choose one out of six answers indicating increasing severity of the particular symptom. The answers are assigned points from 0 to 5. The total score can therefore range from 0 to 35 (asymptomatic to very symptomatic). The questions refer to the following urinary symptoms:
# Patients with BPH were given an intraprostatic injection of either a) SEQ ID NO. 66 (Ile-Asp-Gln-Gln-Val-Leu-Ser-Arg-Ile-Lys-Leu-Glu-Ile-Lys-Arg-Cys-Leu) in phosphate buffered saline pH 7.2 (“PBS”) or b) PBS alone, under double-blind conditions by a urologist in an office setting under ultrasound guidance. Patients were followed for 1 to 6 years with regular physical examinations, laboratory tests, and evaluations of symptoms. Symptomatic evaluation was measured by the International Prostate Symptom Score (IPSS) which is a quantitative scale used to gauge prostatic symptomatic improvement or worsening. The IPSS quantifies the following: 1) incomplete bladder emptying after urination; 2) frequent urination; 3) stopping and starting during urination; 4) urgent need to urinate; 5) weakness of urinary stream; 6) need to push or strain during urination; 7) need to urinate after going to sleep at night (nocturia). The difference from baseline IPSS was compared in all patients who were given an intraprostatic injection of SEQ ID NO. 66 to the difference from baseline IPSS in patients who received PBS alone. […] 66 treated patients, there was also an unexpected decrease in the incidence of worsening and progression in symptoms in patients treated with SEQ ID NO. 66.
# Patients with BPH were given an intraprostatic injection of either a) SEQ ID NO. 66 in phosphate buffered saline pH 7.2 (“PBS”) or b) PBS alone, under double-blind conditions by a urologist in an office setting under ultrasound guidance. Subsequently, 326 placebo and SEQ ID NO. 66 treated subjects were administered an intraprostatic injection of SEQ ID NO. 66 (2.5 mg). Patients were followed for 1 to 6 years with physical examinations, laboratory tests, and evaluations of symptoms. Symptomatic evaluation was measured by the International Prostate Symptom Score (IPSS) which is a quantitative scale used to gauge prostatic symptomatic improvement or worsening. The IPSS quantifies the following: 1) incomplete bladder emptying after urination; 2) frequent urination; 3) stopping and starting during urination; 4) urgent need to urinate; 5) weakness of urinary stream; 6) need to push or strain during urination; 7) need to urinate after going to sleep at night (nocturia). The difference from baseline IPSS was compared in placebo patients who subsequently received SEQ ID NO. 66 vs results in patients who received PBS alone. […] 66 treated patients there was also an unexpected decrease in the incidence of worsening or lack of improvement in symptoms in patients treated with SEQ ID NO. 66.
# Patients with BPH were given an intraprostatic injection of either a) SEQ ID NO. 66 in phosphate buffered saline pH 7.2 (“PBS”) or b) PBS alone, under double-blind conditions by a urologist in an office setting under ultrasound guidance. Subsequently, 326 subjects were given an intraprostatic injection of SEQ ID NO. 66 (2.5 mg). Symptomatic evaluation was measured by the International Prostate Symptom Score (IPSS) which is a quantitative scale used to gauge prostatic symptomatic improvement or worsening. The IPSS quantifies the following: 1) incomplete bladder emptying after urination; 2) frequent urination; 3) stopping and starting during urination; 4) urgent need to urinate; 5) weakness of urinary stream; 6) need to push or strain during urination; 7) need to urinate after going to sleep at night (nocturia). […]
sequence,measurement,setting,value
"IDQQVLSRIKLEIKRCL [SEQ ID NO: 66, NTP peptide Ile-Asp-Gln-Gln-Val-Leu-Ser-Arg-Ile-Lys-Leu-Glu-Ile-Lys-Arg-Cys-Leu, injected intraprostatically in phosphate buffered saline pH 7.2]",Percentage of worsening of IPSS,"Example 1: all patients given one intraprostatic injection of SEQ ID NO. 66 in PBS, followed 1 to 6 years, p < .02 vs PBS alone",13.1%*
same,Percentage of worsening of IPSS or no improvement in IPSS,"Example 2: placebo patients who subsequently received intraprostatic SEQ ID NO. 66 (2.5 mg), followed 1 to 6 years, p < 0.0001 vs PBS alone",17.3%*
same,Percentage of worsening of IPSS or no improvement in IPSS,"Example 3: patients who received two intraprostatic injections of SEQ ID NO. 66 (second 2.5 mg), p < 0.0001 vs PBS alone",17.6%*
same,Percentage of worsening of IPSS or no improvement of IPSS,"Example 4: all placebo and SEQ ID NO. 66 treated patients subsequently given intraprostatic SEQ ID NO. 66 (2.5 mg), followed 1 to 6 years, p < .0001 vs PBS alone",17.5%*
same,Percentage of worsening of IPSS,"Example 5: placebo patients who subsequently received intraprostatic SEQ ID NO. 66 (2.5 mg), followed 1 to 6 years, p < 0.0001 vs PBS alone",9.0%*
same,Percentage of worsening of IPSS,"Example 6: patients who received SEQ ID NO. 66 and subsequently SEQ ID NO. 66 (2.5 mg) intraprostatic, followed 1 to 6 years, p < 0.05 vs PBS alone",13.5%*
same,Percentage of worsening of IPSS,"Example 7: all placebo and SEQ ID NO. 66 treated patients subsequently given intraprostatic SEQ ID NO. 66 2.5 mg, followed 1 to 6 years, p < .0001 vs PBS alone",11.7%*
same,Percentage of worsening of IPSS or no improvement of IPSS,"Example 8: patients given one intraprostatic injection of SEQ ID NO. 66 in PBS, followed 1 to 6 years, p < .003 vs PBS alone",36.4%*
same,improvement of symptoms (difference from baseline IPSS) compared to PBS alone,SEQ ID NO. 66 patients subsequently treated with SEQ ID NO. 66 (two injections),more improvement
same,improvement of symptoms (difference from baseline IPSS) compared to PBS alone,all placebo and SEQ ID NO. 66 treated patients subsequently treated with SEQ ID NO. 66 (2.5 mg),more improvement
same,improvement of symptoms (difference from baseline IPSS) compared to PBS alone,"one intraprostatic injection of SEQ ID NO. 66, followed 1 to 6 years",more improvement
same,improvement of symptoms (difference from baseline IPSS) compared to PBS alone,placebo patients subsequently treated with SEQ ID NO. 66 (2.5 mg),more improvement
